Source: US20260078103A1, “ISOQUINOLONES AS PI3K INHIBITORS” (OnKure, Inc., priority 2022, published 2026)

Test system: SKBR3 cells express WT PI3Ka
Assay: In vitro cell proliferation, SKBR3 cells (CellTiter-Glo)
Type: cell-based
Conditions: Homo sapiens, SK-BR-3, 72 h, inhibition of proliferation
Method in brief: (§1)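 T47D (PI3Kα H1047R; RPMI, 10% FBS, insulin 0.2 units/mL) or SKBR3 (WT PI3Kα; McCoys 5a, 10% FBS) cells seeded at 1,500 cells/well on 10-point compound dilutions, grown 72 h at 37 °C. CellTiter-Glo luminescence; inhibition normalised to 0.1% DMSO and 10 uM alpelisib, EC50 from four-parameter fit.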

Row | Structure (SMILES) | EC50
1 | Cc1cc([C@@H](C)Nc2ccccc2C(=O)O)c2cc(-c3cnc(COC(F)(F)F)c(F)c3)n(C)c(=O)c2c1 [Example 282] | 2 to 15 µM
2 | Cc1cc([C@@H](C)Nc2ccccc2C(=O)O)c2cc(-c3cnc(C(C)(C)F)nc3)n(C)c(=O)c2c1 [Example 283] | > 15 µM
3 | CCOc1ncc(-c2cc3c([C@@H](C)Nc4ccccc4C(=O)O)cc(C)cc3c(=O)n2C)s1 [Example 284] | > 15 µM
4 | Cc1cc([C@@H](C)Nc2ccccc2C(=O)O)c2c(F)c(N3CCN(CC(F)(F)F)CC3)n(C)c(=O)c2c1 [Example 285] | 2 to 15 µM
5 | Cc1cc([C@@H](C)Nc2ccccc2C(=O)O)c2cc(-c3cnc(C(F)(F)F)nc3)n(C)c(=O)c2c1 [Example 288] | > 15 µM
6 | Cc1cc([C@@H](C)Nc2ccccc2C(=O)O)c2cc(-c3cnc(C(F)F)c(F)c3)n(C)c(=O)c2c1 [Example 290] | > 15 µM
7 | Cc1cc([C@@H](C)Nc2ccccc2C(=O)O)c2cc(-c3cnc(C(C)(F)F)c(F)c3)n(C)c(=O)c2c1 [Example 291] | > 15 µM
8 | Cc1cc([C@@H](C)Nc2ccccc2C(=O)O)c2cc(-c3cnc(C(F)(F)F)c(F)c3)n(C)c(=O)c2c1 [Example 295] | > 15 µM
9 | Cc1cc([C@@H](C)Nc2ccccc2C(=O)O)c2cc(C3CCN(CC(F)(F)F)CC3)n(C)c(=O)c2c1 [Example 296] | > 15 µM
10 | Cc1cc([C@@H](C)Nc2cccc(C)c2C(=O)O)c2cc(N3CCN(CC(F)(F)F)CC3)n(C)c(=O)c2c1 [Example 297] | > 15 µM
11 | C#Cc1ccc(N[C@H](C)c2cc(C)cc3c(=O)n(C)c(N4CCN(CC(F)(F)F)CC4)cc23)c(C(=O)O)n1 [Example 299] | 2 to 15 µM
12 | COc1cccc(N[C@H](C)c2cc(C)cc3c(=O)n(C)c(N4CCN(CC(F)(F)F)CC4)cc23)c1C(=O)O [Example 300] | > 15 µM
13 | Cc1cc([C@@H](C)Nc2ccccc2C(=O)O)c2cc(C3C[C@H]3C3CC3)n(C)c(=O)c2c1 (stereo partly shown) [Example 303] | > 15 µM
14 | COC[C@@H]1CC1c1cc2c([C@@H](C)Nc3ccccc3C(=O)O)cc(C)cc2c(=O)n1C (stereo partly shown) [Example 304] | > 15 µM
15 | Cc1cc([C@@H](C)Nc2ccccc2C(=O)O)c2cc(C3C[C@H]3C)n(C)c(=O)c2c1 (stereo partly shown) [Example 305] | > 15 µM
16 | Cc1cc([C@@H](C)Nc2ccccc2C(=O)O)c2cc(C3C[C@H]3C(C)C)n(C)c(=O)c2c1 (stereo partly shown) [Example 306] | > 15 µM

Test system: T47D cells expressing mutant PI3Ka (H1047R)
Assay: In vitro cell proliferation, T47D cells (CellTiter-Glo)
Type: cell-based
Conditions: Homo sapiens, T47D, 72 h, inhibition of proliferation, read-out: Avg T-47D EC50
Method in brief: as §1

Row | Structure (SMILES) | EC50
17 | Cc1cc([C@@H](C)Nc2ccccc2C(=O)O)c2cc(-c3cnc(COC(F)(F)F)c(F)c3)n(C)c(=O)c2c1 [Example 282] | 1 to 500 nM
18 | Cc1cc([C@@H](C)Nc2ccccc2C(=O)O)c2cc(-c3cnc(C(C)(C)F)nc3)n(C)c(=O)c2c1 [Example 283] | 1 to 500 nM
19 | CCOc1ncc(-c2cc3c([C@@H](C)Nc4ccccc4C(=O)O)cc(C)cc3c(=O)n2C)s1 [Example 284] | 1 to 500 nM
20 | Cc1cc([C@@H](C)Nc2ccccc2C(=O)O)c2c(F)c(N3CCN(CC(F)(F)F)CC3)n(C)c(=O)c2c1 [Example 285] | 1 to 500 nM
21 | Cc1cc([C@@H](C)Nc2ccccc2C(=O)O)c2cc(-c3cnc(C(F)(F)F)nc3)n(C)c(=O)c2c1 [Example 288] | 1 to 500 nM
22 | Cc1cc([C@@H](C)Nc2ccccc2C(=O)O)c2cc(-c3cnc(C(F)F)c(F)c3)n(C)c(=O)c2c1 [Example 290] | 1 to 500 nM
23 | Cc1cc([C@@H](C)Nc2ccccc2C(=O)O)c2cc(-c3cnc(C(C)(F)F)c(F)c3)n(C)c(=O)c2c1 [Example 291] | 1 to 500 nM
24 | Cc1cc([C@@H](C)Nc2ccccc2C(=O)O)c2cc(-c3cnc(C(F)(F)F)c(F)c3)n(C)c(=O)c2c1 [Example 295] | 1 to 500 nM
25 | Cc1cc([C@@H](C)Nc2ccccc2C(=O)O)c2cc(C3CCN(CC(F)(F)F)CC3)n(C)c(=O)c2c1 [Example 296] | 1 to 500 nM
26 | Cc1cc([C@@H](C)Nc2cccc(C)c2C(=O)O)c2cc(N3CCN(CC(F)(F)F)CC3)n(C)c(=O)c2c1 [Example 297] | 2000 to 15000 nM
27 | C#Cc1ccc(N[C@H](C)c2cc(C)cc3c(=O)n(C)c(N4CCN(CC(F)(F)F)CC4)cc23)c(C(=O)O)n1 [Example 299] | 1 to 500 nM
28 | COc1cccc(N[C@H](C)c2cc(C)cc3c(=O)n(C)c(N4CCN(CC(F)(F)F)CC4)cc23)c1C(=O)O [Example 300] | 500 to 2000 nM
29 | Cc1cc([C@@H](C)Nc2ccccc2C(=O)O)c2cc(C3C[C@H]3C3CC3)n(C)c(=O)c2c1 (stereo partly shown) [Example 303] | 1 to 500 nM
30 | COC[C@@H]1CC1c1cc2c([C@@H](C)Nc3ccccc3C(=O)O)cc(C)cc2c(=O)n1C (stereo partly shown) [Example 304] | 1 to 500 nM
31 | Cc1cc([C@@H](C)Nc2ccccc2C(=O)O)c2cc(C3C[C@H]3C)n(C)c(=O)c2c1 (stereo partly shown) [Example 305] | 1 to 500 nM
32 | Cc1cc([C@@H](C)Nc2ccccc2C(=O)O)c2cc(C3C[C@H]3C(C)C)n(C)c(=O)c2c1 (stereo partly shown) [Example 306] | 1 to 500 nM

Test system: phosphorylation of AKT (pAKT) in T47D cells expressing mutant PI3Ka (H1047R)
Assay: In vitro cell pAKT (Ser473) HTRF, T47D cells
Type: cell-based
Conditions: Homo sapiens, T47D, 6 h, cellular pAKT, T47D cells, mutant PI3Ka (H1047R), 6 hours; read-out: Avg T-47D IC50
Method in brief: (§2)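 pAKT (Ser473) was quantified by HTRF in lysates from cells exposed 6 h at 37 °C to 10-point compound series, with T47D in insulin-supplemented RPMI/10% FBS and SKBR3 in McCoy's 5a/10% FBS. Controls: 0.1% DMSO (high) and 10 uM alpelisib (low). IC50 from sigmoidal curve fitting.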

Row | Structure (SMILES) | IC50
33 | Cc1cc([C@@H](C)Nc2ccccc2C(=O)O)c2cc(-c3cnc(COC(F)(F)F)c(F)c3)n(C)c(=O)c2c1 [Example 282] | 1 to 500 nM
34 | Cc1cc([C@@H](C)Nc2ccccc2C(=O)O)c2cc(-c3cnc(C(C)(C)F)nc3)n(C)c(=O)c2c1 [Example 283] | 1 to 500 nM
35 | CCOc1ncc(-c2cc3c([C@@H](C)Nc4ccccc4C(=O)O)cc(C)cc3c(=O)n2C)s1 [Example 284] | 1 to 500 nM
36 | Cc1cc([C@@H](C)Nc2ccccc2C(=O)O)c2c(F)c(N3CCN(CC(F)(F)F)CC3)n(C)c(=O)c2c1 [Example 285] | 1 to 500 nM
37 | Cc1cc([C@@H](C)Nc2ccccc2C(=O)O)c2cc(-c3cnc(C(F)(F)F)nc3)n(C)c(=O)c2c1 [Example 288] | 1 to 500 nM
38 | Cc1cc([C@@H](C)Nc2ccccc2C(=O)O)c2cc(-c3cnc(C(F)F)c(F)c3)n(C)c(=O)c2c1 [Example 290] | 1 to 500 nM
39 | Cc1cc([C@@H](C)Nc2ccccc2C(=O)O)c2cc(-c3cnc(C(C)(F)F)c(F)c3)n(C)c(=O)c2c1 [Example 291] | 1 to 500 nM
40 | Cc1cc([C@@H](C)Nc2ccccc2C(=O)O)c2cc(-c3cnc(C(F)(F)F)c(F)c3)n(C)c(=O)c2c1 [Example 295] | 1 to 500 nM
41 | Cc1cc([C@@H](C)Nc2ccccc2C(=O)O)c2cc(C3CCN(CC(F)(F)F)CC3)n(C)c(=O)c2c1 [Example 296] | 1 to 500 nM
42 | Cc1cc([C@@H](C)Nc2cccc(C)c2C(=O)O)c2cc(N3CCN(CC(F)(F)F)CC3)n(C)c(=O)c2c1 [Example 297] | 2000 to 15000 nM
43 | C#Cc1ccc(N[C@H](C)c2cc(C)cc3c(=O)n(C)c(N4CCN(CC(F)(F)F)CC4)cc23)c(C(=O)O)n1 [Example 299] | 1 to 500 nM
44 | COc1cccc(N[C@H](C)c2cc(C)cc3c(=O)n(C)c(N4CCN(CC(F)(F)F)CC4)cc23)c1C(=O)O [Example 300] | 500 to 2000 nM
45 | Cc1cc([C@@H](C)Nc2ccccc2C(=O)O)c2cc(C3C[C@H]3C3CC3)n(C)c(=O)c2c1 (stereo partly shown) [Example 303] | 1 to 500 nM
46 | COC[C@@H]1CC1c1cc2c([C@@H](C)Nc3ccccc3C(=O)O)cc(C)cc2c(=O)n1C (stereo partly shown) [Example 304] | 1 to 500 nM
47 | Cc1cc([C@@H](C)Nc2ccccc2C(=O)O)c2cc(C3C[C@H]3C)n(C)c(=O)c2c1 (stereo partly shown) [Example 305] | 1 to 500 nM
48 | Cc1cc([C@@H](C)Nc2ccccc2C(=O)O)c2cc(C3C[C@H]3C(C)C)n(C)c(=O)c2c1 (stereo partly shown) [Example 306] | 1 to 500 nM

Test system: phosphorylation of AKT (pAKT) in SKBR3 cells express WT PI3Ka
Assay: In vitro cell pAKT (Ser473) HTRF, SKBR3 cells
Type: cell-based
Conditions: Homo sapiens, SK-BR-3, 6 h, cellular pAKT
Method in brief: as §2

Row | Structure (SMILES) | IC50
49 | Cc1cc([C@@H](C)Nc2ccccc2C(=O)O)c2cc(-c3cnc(COC(F)(F)F)c(F)c3)n(C)c(=O)c2c1 [Example 282] | > 15 µM
50 | Cc1cc([C@@H](C)Nc2ccccc2C(=O)O)c2cc(-c3cnc(C(C)(C)F)nc3)n(C)c(=O)c2c1 [Example 283] | > 15 µM
51 | CCOc1ncc(-c2cc3c([C@@H](C)Nc4ccccc4C(=O)O)cc(C)cc3c(=O)n2C)s1 [Example 284] | 2 to 15 µM
52 | Cc1cc([C@@H](C)Nc2ccccc2C(=O)O)c2c(F)c(N3CCN(CC(F)(F)F)CC3)n(C)c(=O)c2c1 [Example 285] | 2 to 15 µM
53 | Cc1cc([C@@H](C)Nc2ccccc2C(=O)O)c2cc(-c3cnc(C(F)(F)F)nc3)n(C)c(=O)c2c1 [Example 288] | > 15 µM
54 | Cc1cc([C@@H](C)Nc2ccccc2C(=O)O)c2cc(-c3cnc(C(F)F)c(F)c3)n(C)c(=O)c2c1 [Example 290] | > 15 µM
55 | Cc1cc([C@@H](C)Nc2ccccc2C(=O)O)c2cc(-c3cnc(C(C)(F)F)c(F)c3)n(C)c(=O)c2c1 [Example 291] | > 15 µM
56 | Cc1cc([C@@H](C)Nc2ccccc2C(=O)O)c2cc(-c3cnc(C(F)(F)F)c(F)c3)n(C)c(=O)c2c1 [Example 295] | > 15 µM
57 | Cc1cc([C@@H](C)Nc2ccccc2C(=O)O)c2cc(C3CCN(CC(F)(F)F)CC3)n(C)c(=O)c2c1 [Example 296] | > 15 µM
58 | Cc1cc([C@@H](C)Nc2cccc(C)c2C(=O)O)c2cc(N3CCN(CC(F)(F)F)CC3)n(C)c(=O)c2c1 [Example 297] | > 15 µM
59 | C#Cc1ccc(N[C@H](C)c2cc(C)cc3c(=O)n(C)c(N4CCN(CC(F)(F)F)CC4)cc23)c(C(=O)O)n1 [Example 299] | 2 to 15 µM
60 | COc1cccc(N[C@H](C)c2cc(C)cc3c(=O)n(C)c(N4CCN(CC(F)(F)F)CC4)cc23)c1C(=O)O [Example 300] | > 15 µM
61 | Cc1cc([C@@H](C)Nc2ccccc2C(=O)O)c2cc(C3C[C@H]3C3CC3)n(C)c(=O)c2c1 (stereo partly shown) [Example 303] | > 15 µM
62 | COC[C@@H]1CC1c1cc2c([C@@H](C)Nc3ccccc3C(=O)O)cc(C)cc2c(=O)n1C (stereo partly shown) [Example 304] | > 15 µM
63 | Cc1cc([C@@H](C)Nc2ccccc2C(=O)O)c2cc(C3C[C@H]3C)n(C)c(=O)c2c1 (stereo partly shown) [Example 305] | > 15 µM
64 | Cc1cc([C@@H](C)Nc2ccccc2C(=O)O)c2cc(C3C[C@H]3C(C)C)n(C)c(=O)c2c1 (stereo partly shown) [Example 306] | > 15 µM
